Tests used:
HCI-13 tumors = assay: Phospho-proteomics of HCI-13 PDX tumors; set-up: species or system mice; conditions: mouse, in vivo
Protocol: Whole tissue lysates were directly prepared from the tissue sections using a 1:1 mixture of T-PER (Tissue Protein Extraction Reagent; Pierce, Rockford, Ill.) and 2× Tris-Glycine SDS Sample Buffer (Invitrogen, Carlsbad, Calif.) supplemented with 5% 2-mercaptoethanol. Samples were boiled for 8 minutes and stored at −80° C. until arrayed.
Samples and standard curves for internal quality assurance were printed onto nitrocellulose-coated slides (Grace Bio-labs, Bend, Oreg.) using an Aushon 2470 arrayer (Aushon BioSystems, Billerica, Mass.). Selected arrays were used to estimate the amount of protein in each sample using a Sypro Ruby Protein Blot Stain (Molecular Probes, Eugene, Oreg.) protocol following manufacturer's instructions (Pin et al. (2014) Curr Protoc Prtein Sci 75, Unit 27 27). Remaining arrays were tested with a single primary antibody using an automated system (Dako Cytomation, Carpinteria, Calif.) as previously described (Baldelli et al. (2015) Oncotarget 6, 32368-32379). Arrays were first incubated with Reblot Antibody stripping solution (Chemicon, Temecula, Calif.), followed by two washes in PBS, and I-block solution (Tropix, Bedford, Mass.) for 4 hours. Arrays were probed with a total of 174 antibodies targeting a wide range of protein kinases and their activation via phosphorylation. Antibodies specificity was tested using standard immunoblotting on a panel of cell lysates. […]
The commercially available Signal Amplification System (CSA; Dako Cytomation) and a streptavidin-conjugated IRDye 680 secondary antibody (LI-COR Biosciences, Lincoln, Nebr.) were used as signal detection methods. Images were acquired on the laser-based PowerScanner (TECAN, Mönnedorf, Switzerland), and data were analyzed using the MicroVigene software Version 5.1 (Vigene Tech, Carlisle, Mass.) as previously described (Baldelli et al. (2015) Oncotarget 6, 32368-32379). […]

HCI-13 PDX = assay: HCI-13 (HCI-013) patient-derived xenograft in NSG mice; type: in vivo; conditions: 10 mpk p.o.
Protocol: HCI-013 tumor pieces (1 mm^3) were implanted surgically (one per mouse) under the skin on the flanks of NSG mice. Tumors were allowed to grow and reach approximately 100 mm^3 volume (1*W*W*0.526). […] Tumor volume was measured weekly and represented as % change in tumor volume. Mice were sacrificed, tumors weighed, and stored for further analysis.
All animal protocols were approved by The University of Tennessee Health Science Center (UTHSC) Institutional Animal Care and Use Research Committee. Xenograft experiments were performed as previously published (Narayanan et al. (2014) PLoS One 9, e103202). Briefly, 3 million MCF-7 cells were suspended in 0.05 ml MEM+10% FBS and 0.05 ml Matrigel/nude mouse and were injected subcutaneously. Once the tumor size reached 100-200 mm^3, the animals were randomized and treated orally with the indicated drugs formulated in DMSO:PEG-300 (15:85). HCI-7, HCI-9, and HCI-13 PDXs were gifts kindly donated by Dr. Alana Welm (Huntsman Cancer Institute, Salt Lake City, Utah). HCI PDX tumor fragments (1 mm^3) were surgically implanted under the mammary fat pad in female NOD SCID Gamma (NSG) mice. Tumor volume was measured twice weekly for MCF-7 xenograft and once or twice weekly for HCI PDXs. At the end of the study, animals were sacrificed and tumors were excised, weighed, and stored for various analyses.

How did the “expression of proliferation marker Ki67” value (HCI-13 tumors) turn out when `C[C@](O)(COc1ccc(C#N)cc1)C(=O)Nc1ccc(C#N)c(C(F)(F)F)c1` [Formula IX, (S)—N-(4-Cyano-3-(trifluoromethyl)phenyl)-3-(4-cyanophenoxy)-2-hydroxy-2-methylpropanamide] was run?
Its value is “inhibited the expression”.

What about the “phosphorylation of oncogenic proteins (pERK, PKC z, RSK3, Ezrin, BCL2, ELF4G, ER)” value (HCI-13 tumors) of the same compound?
The value was “inhibited the phosphorylation”.

And the “phosphorylation of tumor suppressor proteins (p53, p27, ACC, AR)” value (HCI-13 tumors)?
Its value is “increased the phosphorylation”.

And the “tumor weight at sacrifice” value (HCI-13 PDX)?
Its value is “almost complete inhibition of tumor”.

Reference: patent US20220257552A1, “METHODS OF PRESCREENING AND TREATING BREAST CANCERS WITH SELECTIVE ANDROGEN RECEPTOR MODULATORS” (priority 2021, published 2022)
